Source: patent US20250320224A1 (DOMAIN THERAPEUTICS, priority 2022, published 2025)

Biological target: T1, human PAR-2 (hPAR-2) receptor (Homo sapiens, UniProt P55085)
T1 construct: expressed in HEK-293 cells in an endogenous manner; endogenous in cells; host or cells: HEK-293
T1 sequence (P55085 26-397): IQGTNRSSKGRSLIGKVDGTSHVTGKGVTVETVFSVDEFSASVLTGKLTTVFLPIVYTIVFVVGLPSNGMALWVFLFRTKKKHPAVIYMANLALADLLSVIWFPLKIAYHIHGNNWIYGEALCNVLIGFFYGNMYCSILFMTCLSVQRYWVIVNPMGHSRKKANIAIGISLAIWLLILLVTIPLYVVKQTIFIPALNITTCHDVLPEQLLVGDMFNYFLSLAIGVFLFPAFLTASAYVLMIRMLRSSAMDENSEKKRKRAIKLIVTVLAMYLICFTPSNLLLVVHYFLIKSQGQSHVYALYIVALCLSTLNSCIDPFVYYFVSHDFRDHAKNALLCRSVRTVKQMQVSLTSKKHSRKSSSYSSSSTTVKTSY
Test: In vitro human PAR-2 functional antagonist activity using calcium assays
Format: cell-based
Settings: hPAR-2 endogenously expressed in HEK-293 cells; stimulated by 2-Furoyl-LIGRLO-NH2 peptide; Fluo4AM intracellular calcium, FLIPR Tetra
Outline: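 HEK-293 cells with endogenous hPAR-2 were loaded with Fluo4AM and read for intracellular Ca2+ on FLIPR. After 10 min with compound alone, cells were stimulated with 2-Furoyl-LIGRLO-NH2 at the concentration giving 80% of maximal response. Inhibition was then recorded over 5 min relative to buffer and agonist-only signals.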

SMILES	IC50
CC1(C)CN(c2ccc(Cl)c(F)c2)c2cc(O)c(C(=O)N3CCN(c4ccc(CC(=O)O)cn4)CC3(C)C)nc21 [Example 258, 2-(6-(4-(1-(4-chloro-3-fluorophenyl)-6-hydroxy-3,3-dimethyl-2,3-dihydro-1H-pyrrolo[3,2-b]pyridine-5-carbonyl)-3,3-dimethylpiperazin-1-yl)pyridin-3-yl)acetic acid]	500 to 10000 nM
COC(=O)CCCCCCC(=O)N1CCN(C(=O)c2cnc3c(n2)C2(CN3c3ccc(Cl)c(F)c3)CC(C)(C)C2)C(C)(C)C1 [Example 259, methyl 8-(4-(5′-(4-chloro-3-fluorophenyl)-3,3-dimethyl-5′,6′-dihydrospiro[cyclobutane-1,7′-pyrrolo[2,3-b]pyrazine]-2′-carbonyl)-3,3-dimethylpiperazin-1-yl)-8-oxooctanoate]	< 500 nM
CC1(C)CC2(CN(c3ccc(Cl)c(F)c3)c3ncc(C(=O)N4CCN(C(=O)CCCCCCC(=O)O)CC4(C)C)nc32)C1 [Example 260, 8-(4-(5′-(4-chloro-3-fluorophenyl)-3,3-dimethyl-5′,6′-dihydrospiro[cyclobutane-1,7′-pyrrolo[2,3-b]pyrazine]-2′-carbonyl)-3,3-dimethylpiperazin-1-yl)-8-oxooctanoic acid]	< 500 nM
CCCCCCCCCCCCCCCC(=O)N(C)CCN(C)C(=O)CCOCCOCCOCCNC(=O)CCOCCOCCOCCNC(=O)CCCCCCC(=O)N1CCN(C(=O)c2cnc3c(n2)C2(CN3c3ccc(Cl)c(F)c3)CC(C)(C)C2)C(C)(C)C1 [Example 261, N-(37-(4-(5′-(4-chloro-3-fluorophenyl)-3,3-dimethyl-5′,6′-dihydrospiro[cyclobutane-1,7′-pyrrolo[2,3-b]pyrazine]-2′-carbonyl)-3,3-dimethylpiperazin-1-yl)-3-methyl-4,17,30,37-tetraoxo-7,10,13,20,23,26-hexaoxa-3,16,29-triazaheptatriacontyl)-N-methylpalmitamide]	500 to 10000 nM
Cc1cc(N2CCN(C(=O)c3cnc4c(n3)C(C)(C)CN4c3ccc(Cl)c(F)c3)C(C)(C)C2)c(C(=O)O)c(C)n1 [Example 263, 4-(4-(5-(4-chloro-3-fluorophenyl)-7,7-dimethyl-6,7-dihydro-5H-pyrrolo[2,3-b]pyrazine-2-carbonyl)-3,3-dimethylpiperazin-1-yl)-2,6-dimethylnicotinic acid]	> 10000 nM
CC1(C)CN(c2ccc(Cl)c(F)c2)c2ccc(C(=O)N3CCN(c4ccc(CC(=O)O)cn4)CC3(C)C)nc2O1 [Example 265, 2-(6-(4-(1-(4-chloro-3-fluorophenyl)-3,3-dimethyl-2,3-dihydro-1H-pyrido[2,3-b][1,4]oxazine-6-carbonyl)-3,3-dimethylpiperazin-1-yl)pyridin-3-yl)acetic acid]	> 10000 nM
CC1(C)CC2(CN(c3ccc(Cl)c(F)c3)c3ncc(S(=O)(=O)N4CCC(N5CCNC5=O)CC4)nc32)C1 [Example 266, 1-(1-((5′-(4-chloro-3-fluorophenyl)-3,3-dimethyl-5′,6′-dihydrospiro[cyclobutane-1,7′-pyrrolo[2,3-b]pyrazin]-2′-yl)sulfonyl)piperidin-4-yl)imidazolidin-2-one]	> 10000 nM
CC1(C)CN(c2ccc(Cl)c(F)c2)c2ncc(C(=O)N3CCN(c4ccc(CC(=O)O)cn4)CC3(C)C)nc2O1 [Example 268, 2-(6-(4-(4-(4-chloro-3-fluorophenyl)-2,2-dimethyl-3,4-dihydro-2H-pyrazino[2,3-b][1,4]oxazine-7-carbonyl)-3,3-dimethylpiperazin-1-yl)266yridine-3-yl)acetic acid]	> 10000 nM
CC1(C)CN(c2ccc(Cl)c(F)c2)Cc2sc(C(=O)N3CCN(c4ccc(CC(=O)O)cn4)CC3(C)C)nc21 [Example 270, 2-(6-(4-(5-(4-chloro-3-fluorophenyl)-7,7-dimethyl-4,5,6,7-tetrahydrothiazolo[5,4-c]pyridine-2-carbonyl)-3,3-dimethylpiperazin-1-yl)pyridin-3-yl)acetic acid]	500 to 10000 nM
CC1(C)CN(c2ccc(Cl)c(F)c2)Cc2cn(C(=O)N3CCN(c4ccc(CC(=O)O)cn4)CC3(C)C)nc21 [Example 273, 2-(6-(4-(5-(4-chloro-3-fluorophenyl)-7,7-dimethyl-4,5,6,7-tetrahydro-2H-pyrazolo[4,3-c]pyridine-2-carbonyl)-3,3-dimethylpiperazin-1-yl)pyridin-3-yl)acetic acid]	500 to 10000 nM
Cc1cc(N2CCN(C(=O)c3ccc4c(n3)C(C)(C)CN4c3ccc(C(F)(F)F)c(F)c3)C(C)(C)C2)nc(C)c1C(=O)O [Example 275, 6-(4-(1-(3-fluoro-4-(trifluoromethyl)phenyl)-3,3-dimethyl-2,3-dihydro-1H-pyrrolo[3,2-b]pyridine-5-carbonyl)-3,3-dimethylpiperazin-1-yl)-2,4-dimethylnicotinic acid]	< 500 nM
Cc1cc(N2CCN(C(=O)c3cnc4c(n3)C(C)(C)CN4c3cc(F)c(F)c(F)c3)C(C)(C)C2)nc(C)c1C(=O)O [Example 277, 6-(4-(7,7-dimethyl-5-(3,4,5-trifluorophenyl)-6,7-dihydro-5H-pyrrolo[2,3-b]pyrazine-2-carbonyl)-3,3-dimethylpiperazin-1-yl)-2,4-dimethylnicotinic acid]	< 500 nM
Cc1cc(N2CCN(C(=O)c3ccc4c(n3)C(C)(C)CN4c3ccc(C4CC4)cc3)C(C)(C)C2)nc(C)c1C(=O)O [Example 279, 6-(4-(1-(4-cyclopropylphenyl)-3,3-dimethyl-2,3-dihydro-1H-pyrrolo[3,2-b]pyridine-5-carbonyl)-3,3-dimethylpiperazin-1-yl)-2,4-dimethylnicotinic acid]	< 500 nM
CC1(C)CC2(CN(c3ccc(F)c(F)c3)c3ncc(C(=O)N4CCNC(=O)C4(C)C)nc32)C1 [Example 282, 4-(5′-(3,4-difluorophenyl)-3,3-dimethyl-5′,6′-dihydrospiro[cyclobutane-1,7′-pyrrolo[2,3-b]pyrazine]-2′-carbonyl)-3,3-dimethylpiperazin-2-one]	< 500 nM
